Results on 36 molecules are retold here after ChEMBL document CHEMBL4732249, “Design, synthesis and biological evaluation of 2-aminoquinazolin-4(3H)-one derivatives as potential SARS-CoV-2 and MERS-CoV treatments” (Bioorg Med Chem Lett, 2021).

One may read the CC50 as the concentration at which the toxic effect on the cells reaches its halfway point. As a reminder, the IC50 is the midpoint of a concentration-inhibition curve.

In one series the test system is Vero. Briefly: Cytotoxicity against African green monkey Vero cells assessed as reduction of cell viability by WST-1 assay. The class given is cell-based. The conditions noted are these: chlorocebus sabaeus. A general note: Tetrazolium dyes change colour on reduction, which living cells bring about.
A short description of series [1]: Selective index, ratio of CC50 for African green monkey Vero cells to IC50 for SARS-CoV-2 infected in African green monkey Vero cells.
Series [2] in a line: Selective index, ratio of CC50 for African green monkey Vero cells to IC50 for MERS-CoV infected in African green monkey Vero cells.
The subject of a further series is SARS-CoV-2. Briefly: Antiviral activity against SARS-CoV-2 infected in African green monkey Vero cells assessed as inhibition of viral infection by measuring nucleocapsid protein level by immunofluorescence microscopic analysis. The series is classed as functional, organism-based. The conditions noted are these: Severe acute respiratory syndrome coronavirus 2, Vero.

Series [3] deals with Middle East respiratory syndrome-related coronavirus. Briefly: Antiviral activity against MERS-CoV infected in African green monkey Vero cells assessed as inhibition of viral infection by measuring reduction in spike protein level by immunofluorescence microscopic analysis. The series is classed as functional, organism-based.

For the molecule `O=c1[nH]c(Nc2cc(F)cc(F)c2)nc2cc(C(F)(F)F)ccc12`, the 50% cytotoxic concentration (CC50) in the series on Vero was no less than 7.6 µM. For the same molecule, the “Ratio CC50/IC50” value in series [1] is reported as 38; in series [2], 35. The IC50 with SARS-CoV-2 was determined as 0.2 µM; in series [3] it was 0.73 µM.

On to `O=c1[nH]c(Nc2cc(Cl)cc(Cl)c2)nc2cc(C(F)(F)F)ccc12`, for which the half-maximal cytotoxic concentration (CC50) in the series on Vero was 7.1 µM. Also, the figures for the “Ratio CC50/IC50” value in series [1] and in series [2] were 34 and 7.6, respectively. For the same molecule, the IC50 with SARS-CoV-2 was 0.21 µM; in series [3] it was 0.96 µM.

For `CC(C)Nc1nc2cc(Cl)ccc2c(=O)[nH]1`, the 50% cytotoxic concentration (CC50) with Vero is greater than 25 µM. Further, the “Ratio CC50/IC50” value in series [1] was 1. The IC50 with SARS-CoV-2 was greater than 25 µM.

Consider `O=c1[nH]c(Nc2ccc(F)cc2F)nc2cc(Cl)ccc12`, for which, in the series on Vero, the CC50 is greater than 25 µM. Also, the “Ratio CC50/IC50” value in series [1] turned out to be 1. Moreover, in the series on SARS-CoV-2, the half-maximal inhibitory concentration (IC50) is greater than 25 µM.

Consider `COc1cccc2nc(Nc3cc(F)cc(F)c3)[nH]c(=O)c12`, for which the CC50 in the series with Vero is greater than 25 µM. Besides, in series [1], the “Ratio CC50/IC50” value was found to be 1. Moreover, in the series with SARS-CoV-2, the IC50 was greater than 25 µM.

As for `O=c1[nH]c(Nc2ccc(F)c(F)c2F)nc2cc(Cl)ccc12`, in the series on Vero, the CC50 was greater than 25 µM. Besides, in series [1], the “Ratio CC50/IC50” value is given as 9.4. Besides, in the series with SARS-CoV-2, the half-maximal inhibitory concentration (IC50) was determined as 2.6 µM.

Take `COC(=O)c1cccc(Nc2nc3cc(Cl)ccc3c(=O)[nH]2)c1`: the CC50 in the series on Vero is greater than 25 µM. Also, the “Ratio CC50/IC50” value in series [1] is 2.8. For the same molecule, the IC50 in the series on SARS-CoV-2 came to 8.8 µM.

For `O=c1[nH]c(Nc2cc(F)cc(F)c2)nc2cccc(O)c12`, the CC50 in the series on Vero was greater than 25 µM. The “Ratio CC50/IC50” value was 54 in series [1] and 22 in series [2]. Besides, the IC50 is 0.47 µM in the series on SARS-CoV-2 and 1.1 µM in series [3].

`O=c1[nH]c(NCC2CCCCC2)nc2cc(Cl)ccc12`: in the series on Vero, the cytotoxic concentration (CC50) was greater than 25 µM. Also, the “Ratio CC50/IC50” value in series [1] is 1.7. The half-inhibitory concentration (IC50) with SARS-CoV-2 came to 14 µM.

For `O=c1[nH]c(Nc2cc(Cl)cc(Cl)c2)nc2c(O)cccc12`, in the series on Vero, the 50% cytotoxic concentration (CC50) is greater than 25 µM. Further, the results for the “Ratio CC50/IC50” value in series [1] and in series [2] were 65 and 14, respectively. Also, the values for the concentration for half-maximal inhibition (IC50) (in the series with SARS-CoV-2; in series [3]) were 0.37 µM and 1.7 µM, respectively.

`O=c1[nH]c(Nc2cc(Cl)cc(Cl)c2)nc2cc([N+](=O)[O-])ccc12`: in the series on Vero, the CC50 is greater than 25 µM. The “Ratio CC50/IC50” value in series [1] amounted to 49; in series [2], 1. Also, the IC50 in the series on SARS-CoV-2 was 0.51 µM; in series [3], greater than 25 µM.

With `Cc1cc(C)c2nc(Nc3cc(F)cc(F)c3)[nH]c(=O)c2c1`, the 50% cytotoxic concentration (CC50) in the series with Vero was greater than 25 µM. Moreover, in series [1], the “Ratio CC50/IC50” value was found to be 1. For the same molecule, the IC50 in the series with SARS-CoV-2 is greater than 25 µM.

As for `CCCCNc1nc2cc(Cl)ccc2c(=O)[nH]1`, the CC50 with Vero is greater than 25 µM. Besides, in series [1], the “Ratio CC50/IC50” value was 1. Moreover, the half-maximal inhibitory concentration (IC50) with SARS-CoV-2 was greater than 25 µM.

Consider `O=c1[nH]c(Nc2cc(F)cc(F)c2)nc2c(Cl)c(Cl)ccc12`, for which, in the series with Vero, the CC50 is greater than 25 µM. In addition, the figures for the “Ratio CC50/IC50” value in series [1] and in series [2] were 98 and 30, respectively. Moreover, the IC50 in the series on SARS-CoV-2 is 0.25 µM; in series [3], 0.83 µM.

Take `O=c1[nH]c(Nc2ccc(F)cc2)nc2cc(Cl)ccc12`: the CC50 in the series on Vero was greater than 25 µM. Besides, the “Ratio CC50/IC50” value in series [1] was determined as 1. Besides, in the series with SARS-CoV-2, the 50% inhibitory concentration (IC50) is greater than 25 µM.

Consider `O=c1[nH]c(Nc2ccc(Cl)cc2Cl)nc2cc(Cl)ccc12`, for which the 50% cytotoxic concentration (CC50) in the series on Vero was greater than 25 µM. In addition, the “Ratio CC50/IC50” value in series [1] is reported as 1. Besides, the half-maximal inhibitory concentration (IC50) in the series with SARS-CoV-2 was greater than 25 µM.

For the molecule `O=c1[nH]c(Nc2cc(F)cc(F)c2)nc2cc(Cl)ccc12`, in the series with Vero, the CC50 was no less than 18 µM. The “Ratio CC50/IC50” value in series [1] was 74; in series [2], 65. Also, the half-inhibitory concentration (IC50) in the series with SARS-CoV-2 turned out to be 0.24 µM; in series [3] it was 0.39 µM.

For `O=c1[nH]c(Nc2cc(F)cc(F)c2)nc2cc([N+](=O)[O-])ccc12`, the cytotoxic concentration (CC50) in the series on Vero is greater than 25 µM. The results for the “Ratio CC50/IC50” value in series [1] and in series [2] were 61 and 2.9, respectively. Moreover, the half-maximal inhibitory concentration (IC50) stood at 0.41 µM in the series with SARS-CoV-2 and 8.5 µM in series [3].

Consider `O=c1[nH]c(Nc2ccccc2F)nc2cc(Cl)ccc12`, for which the 50% cytotoxic concentration (CC50) with Vero is greater than 25 µM. Besides, in series [1], the “Ratio CC50/IC50” value was determined as 1. The IC50 in the series with SARS-CoV-2 was greater than 25 µM.

Turning to `O=c1[nH]c(Nc2cccc(O)c2)nc2cc(Cl)ccc12`, the CC50 in the series on Vero is greater than 25 µM. In series [1], the “Ratio CC50/IC50” value turned out to be 1. Besides, the IC50 in the series with SARS-CoV-2 was greater than 25 µM.

`Cc1cc(C)c2nc(Nc3cc(Cl)cc(Cl)c3)[nH]c(=O)c2c1`: the cytotoxic concentration (CC50) in the series on Vero was greater than 25 µM. The “Ratio CC50/IC50” value in series [1] stood at 1. In addition, the concentration for half-maximal inhibition (IC50) with SARS-CoV-2 is greater than 25 µM.

With `O=c1[nH]c(Nc2cc(Cl)cc(Cl)c2)nc2cc(O)ccc12`, the CC50 with Vero was greater than 25 µM. Moreover, in series [1], the “Ratio CC50/IC50” value was 1. The concentration for half-maximal inhibition (IC50) with SARS-CoV-2 is greater than 25 µM.

As to `Nc1ccc2c(=O)[nH]c(Nc3cc(Cl)cc(Cl)c3)nc2c1`, the cytotoxic concentration (CC50) with Vero is greater than 25 µM. Further, in series [1], the “Ratio CC50/IC50” value was found to be 1. Moreover, the IC50 in the series with SARS-CoV-2 is greater than 25 µM.

With `O=c1[nH]c(Nc2cc(F)cc(F)c2)nc2c(Cl)ccc(Cl)c12`, in the series with Vero, the CC50 is greater than 25 µM. In addition, the “Ratio CC50/IC50” value in series [1] came out at 76; in series [2], 31. The IC50 in the series on SARS-CoV-2 was determined as 0.33 µM; in series [3], 0.79 µM.

For `O=c1[nH]c(Nc2cccc(F)c2)nc2cc(Cl)ccc12`, the CC50 in the series on Vero was greater than 25 µM. Moreover, in series [1], the “Ratio CC50/IC50” value is listed as 18. In addition, the concentration for half-maximal inhibition (IC50) in the series with SARS-CoV-2 turned out to be 1.4 µM.

As to `O=c1[nH]c(Nc2cc(O)cc(O)c2)nc2cc(Cl)ccc12`, the CC50 in the series on Vero is greater than 25 µM. Further, the “Ratio CC50/IC50” value in series [1] came out at 1. Besides, the IC50 in the series on SARS-CoV-2 is greater than 25 µM.

Turning to `O=c1[nH]c(Nc2cc(Cl)cc(Cl)c2)nc2cc(N3CCOCC3)ccc12`, the half-maximal cytotoxic concentration (CC50) in the series with Vero is greater than 25 µM. In addition, the “Ratio CC50/IC50” value in series [1] is reported as 1. In addition, the IC50 in the series with SARS-CoV-2 is greater than 25 µM.

As to `O=c1[nH]c(N2CCCCC2)nc2cc(Cl)ccc12`, the CC50 with Vero was greater than 25 µM. Moreover, in series [1], the “Ratio CC50/IC50” value amounted to 1. Further, the half-maximal inhibitory concentration (IC50) in the series with SARS-CoV-2 is greater than 25 µM.

For `O=c1[nH]c(Nc2cc(F)cc(F)c2)nc2cc(O)ccc12`, the CC50 with Vero is greater than 25 µM. Moreover, the “Ratio CC50/IC50” value in series [1] is 1. Further, in the series on SARS-CoV-2, the IC50 was greater than 25 µM.

For the molecule `O=c1[nH]c(Nc2cccc(C(F)(F)F)c2)nc2cc(Cl)ccc12`, the half-maximal cytotoxic concentration (CC50) in the series on Vero was greater than 25 µM. Further, the “Ratio CC50/IC50” value in series [1] is 37. In addition, the half-inhibitory concentration (IC50) in the series on SARS-CoV-2 came out at 0.68 µM.

Consider `COc1cccc2nc(Nc3cc(Cl)cc(Cl)c3)[nH]c(=O)c12`, for which the CC50 in the series on Vero is greater than 25 µM. For the same molecule, the “Ratio CC50/IC50” value in series [1] is recorded as 1. Also, in the series on SARS-CoV-2, the IC50 is greater than 25 µM.

Turning to `O=c1[nH]c(Nc2cc(Cl)cc(Cl)c2)nc2c(Cl)ccc(Cl)c12`, in the series with Vero, the CC50 is greater than 25 µM. Moreover, the figures for the “Ratio CC50/IC50” value in series [1] and in series [2] were 71 and 42, respectively. In addition, the half-inhibitory concentration (IC50) in the series with SARS-CoV-2 amounted to 0.35 µM; in series [3], 0.62 µM.

Consider `N#Cc1cccc(Nc2nc3cc(Cl)ccc3c(=O)[nH]2)c1`, for which the half-maximal cytotoxic concentration (CC50) in the series on Vero is greater than 25 µM. Also, in series [1], the “Ratio CC50/IC50” value is 15. Besides, in the series with SARS-CoV-2, the IC50 came out at 1.7 µM.

In the case of `COc1cccc(Nc2nc3cc(Cl)ccc3c(=O)[nH]2)c1`, the CC50 in the series with Vero is greater than 25 µM. Moreover, the “Ratio CC50/IC50” value in series [1] is 2.3. Moreover, the IC50 with SARS-CoV-2 worked out at 11 µM.

Take `Nc1ccc2c(=O)[nH]c(Nc3cc(F)cc(F)c3)nc2c1`: the CC50 in the series with Vero was greater than 25 µM. For the same molecule, the “Ratio CC50/IC50” value in series [1] was found to be 1. Also, the IC50 in the series on SARS-CoV-2 is greater than 25 µM.

Turning to `O=c1[nH]c(Nc2cc(Cl)cc(Cl)c2)nc2c(Cl)c(Cl)ccc12`, the cytotoxic concentration (CC50) with Vero is greater than 25 µM. In addition, the “Ratio CC50/IC50” value in series [1] is on record as 103; in series [2], 31. Besides, the IC50 came to 0.24 µM with SARS-CoV-2 and 0.88 µM in series [3].
